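Compound exposure: 48 hours, 5 concentrations, 96-well plates. Here, GI50 denotes the concentration required for 50% inhibition of growth.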 The source made the active and inactive calls. Cut-off read from the data, not from the text of the source: active = GI50 up to about 1.1 µM and inactive = higher.
Experiments:
Assay in all cases: NCI-60 cell line screen, 48 h
[1] = test system: NCI/ADR-RES
[2] = test system: RXF 393
[3] = test system: OVCAR-4
[4] = test system: HT-29
[5] = test system: KM12
[6] = test system: SK-MEL-2
[7] = test system: NCI-H226
[8] = test system: UACC-257
[9] = test system: Malme-3M
[10] = test system: K562
[11] = test system: A498
[12] = test system: NCI-H522
[13] = test system: SK-OV-3
[14] = test system: HOP-92
[15] = test system: LOX IMVI
[16] = test system: CCRF-CEM
[17] = test system: OVCAR-8
[18] = test system: OVCAR-3
[19] = test system: SF-268
[20] = test system: NCI-H460

Structure (SMILES)	GI50 [1]	GI50 [2]	GI50 [3]	GI50 [4]	GI50 [5]	GI50 [6]	GI50 [7]	GI50 [8]	GI50 [9]	GI50 [10]	GI50 [11]	GI50 [12]	GI50 [13]	GI50 [14]	GI50 [15]	GI50 [16]	GI50 [17]	GI50 [18]	GI50 [19]	GI50 [20]
OCc1c2c(cc3c1CC1(C3)Cc3cc4c(c(CO)c3C1)CCC4)CCC2	15.1 µM (inactive)	16.6 µM (inactive)	10.1 µM (inactive)	17.1 µM (inactive)	16.4 µM (inactive)	19.8 µM (inactive)	11.6 µM (inactive)	11.6 µM (inactive)	15.3 µM (inactive)	7.35 µM (inactive)	16.4 µM (inactive)	13.3 µM (inactive)	17.5 µM (inactive)	18.5 µM (inactive)	15.1 µM (inactive)	8 µM (inactive)	18.6 µM (inactive)	14.4 µM (inactive)	–	–
Cc1ccc(S(=O)(=O)NC(=O)C2=C3SCCN3C(=O)N(S(=O)(=O)c3ccc(C)cc3)C2c2ccccc2)cc1 (configuration not stated)	> 100 µM (inactive)	25.1 µM (inactive)	58.6 µM (inactive)	34.4 µM (inactive)	28.2 µM (inactive)	46.8 µM (inactive)	> 100 µM (inactive)	78.5 µM (inactive)	40.6 µM (inactive)	36.7 µM (inactive)	> 100 µM (inactive)	20.4 µM (inactive)	24.1 µM (inactive)	28.1 µM (inactive)	39.4 µM (inactive)	19.4 µM (inactive)	77.1 µM (inactive)	20 µM (inactive)	32.3 µM (inactive)	71.1 µM (inactive)
O=C(NCC(O)COc1ccccc1)c1ccccc1O (configuration not stated)	58.6 µM (inactive)	> 100 µM (inactive)	> 100 µM (inactive)	–	> 100 µM (inactive)	> 100 µM (inactive)	> 100 µM (inactive)	> 100 µM (inactive)	> 100 µM (inactive)	> 100 µM (inactive)	> 100 µM (inactive)	55.6 µM (inactive)	> 100 µM (inactive)	86.1 µM (inactive)	> 100 µM (inactive)	40.5 µM (inactive)	> 100 µM (inactive)	> 100 µM (inactive)	–	–
COc1ccc(-c2nnc(-c3ccncc3)o2)cc1	> 100 µM (inactive)	> 100 µM (inactive)	> 100 µM (inactive)	> 100 µM (inactive)	–	> 100 µM (inactive)	> 100 µM (inactive)	> 100 µM (inactive)	> 100 µM (inactive)	> 100 µM (inactive)	> 100 µM (inactive)	> 100 µM (inactive)	> 100 µM (inactive)	> 100 µM (inactive)	> 100 µM (inactive)	> 100 µM (inactive)	> 100 µM (inactive)	> 100 µM (inactive)	> 100 µM (inactive)	–
CCCCn1c2c(n(CCCC)c1=S)-c1c(n(CCCC)c(=S)n1CCCC)SSc1c(n(CCCC)c(=S)n1CCCC)-c1c(n(CCCC)c(=S)n1CCCC)SSc1c(n(CCCC)c(=S)n1CCCC)-c1c(n(CCCC)c(=S)n1CCCC)SS2	> 50 µM (inactive)	2.72 µM (inactive)	1.73 µM (inactive)	11.6 µM (inactive)	19.4 µM (inactive)	10.7 µM (inactive)	10 µM (inactive)	2.98 µM (inactive)	1.57 µM (inactive)	2.03 µM (inactive)	> 50 µM (inactive)	0.78 µM (active)	> 29.2 µM (inactive)	1.65 µM (inactive)	4 µM (inactive)	1.19 µM (inactive)	1.77 µM (inactive)	1.87 µM (inactive)	5.24 µM (inactive)	> 31 µM (inactive)
Cc1ccc2nc(/C=N/c3ccc(Cl)cc3)cc(C)c2c1	3.44 µM (inactive)	24.7 µM (inactive)	20.3 µM (inactive)	2.64 µM (inactive)	0.269 µM (active)	25.8 µM (inactive)	18.4 µM (inactive)	4.38 µM (inactive)	2.44 µM (inactive)	0.147 µM (active)	> 80.4 µM (inactive)	2.65 µM (inactive)	16.8 µM (inactive)	18.6 µM (inactive)	0.329 µM (active)	1.06 µM (active)	10.3 µM (inactive)	9.84 µM (inactive)	14.7 µM (inactive)	0.729 µM (active)
O=C(CSCC(=O)N/N=C/c1cccc(OCc2ccccc2)c1)N/N=C/c1cccc(OCc2ccccc2)c1	44.6 µM (inactive)	> 69.7 µM (inactive)	> 76.4 µM (inactive)	39.5 µM (inactive)	33.3 µM (inactive)	41.3 µM (inactive)	> 74.5 µM (inactive)	32.3 µM (inactive)	45.5 µM (inactive)	22.3 µM (inactive)	> 44.3 µM (inactive)	> 47.6 µM (inactive)	> 100 µM (inactive)	36.7 µM (inactive)	36.1 µM (inactive)	24.4 µM (inactive)	32.2 µM (inactive)	39.5 µM (inactive)	> 80.2 µM (inactive)	34.4 µM (inactive)
C=C(C)[C@@H](C(=O)OC)N1C(=O)c2ccccc2C1=O	> 100 µM (inactive)	> 100 µM (inactive)	> 100 µM (inactive)	> 100 µM (inactive)	> 100 µM (inactive)	> 100 µM (inactive)	> 100 µM (inactive)	> 100 µM (inactive)	> 100 µM (inactive)	> 100 µM (inactive)	> 100 µM (inactive)	> 100 µM (inactive)	> 100 µM (inactive)	> 100 µM (inactive)	> 100 µM (inactive)	> 100 µM (inactive)	> 100 µM (inactive)	> 100 µM (inactive)	> 100 µM (inactive)	> 100 µM (inactive)
CCOC(=O)/C=C(/C(=O)OCC)n1cc(C)c(=O)[nH]c1=O	10.9 µM (inactive)	1.95 µM (inactive)	4.93 µM (inactive)	4.92 µM (inactive)	14.2 µM (inactive)	7 µM (inactive)	5.46 µM (inactive)	12.9 µM (inactive)	2.29 µM (inactive)	1.9 µM (inactive)	12.9 µM (inactive)	0.792 µM (active)	18.3 µM (inactive)	1.71 µM (inactive)	2.19 µM (inactive)	1.37 µM (inactive)	4.62 µM (inactive)	2.68 µM (inactive)	8.65 µM (inactive)	14.6 µM (inactive)
CC1=NN(c2ccccc2)C(=O)C1C(=O)C(=O)Nc1ccc(C)cc1C (configuration not stated)	> 100 µM (inactive)	> 100 µM (inactive)	> 100 µM (inactive)	> 100 µM (inactive)	> 100 µM (inactive)	> 100 µM (inactive)	> 100 µM (inactive)	> 100 µM (inactive)	> 100 µM (inactive)	> 100 µM (inactive)	> 100 µM (inactive)	> 100 µM (inactive)	> 100 µM (inactive)	> 94.2 µM (inactive)	> 100 µM (inactive)	> 100 µM (inactive)	> 100 µM (inactive)	> 100 µM (inactive)	> 100 µM (inactive)	> 100 µM (inactive)
Cc1ccc(NC(=O)c2ccc(OP(=O)(O)Nc3ccc(C)cc3)cc2)cc1	> 100 µM (inactive)	50.7 µM (inactive)	> 100 µM (inactive)	> 100 µM (inactive)	> 100 µM (inactive)	12 µM (inactive)	> 100 µM (inactive)	> 100 µM (inactive)	> 100 µM (inactive)	> 100 µM (inactive)	> 100 µM (inactive)	78.3 µM (inactive)	> 100 µM (inactive)	> 100 µM (inactive)	> 100 µM (inactive)	> 100 µM (inactive)	> 100 µM (inactive)	> 100 µM (inactive)	> 100 µM (inactive)	> 100 µM (inactive)
CO[C@H]1O[C@@H]2OC3(C)CCC4[C@H](C)CCC([C@H]1C)[C@]42OO3 (some centres not stated)	44.2 µM (inactive)	> 100 µM (inactive)	> 100 µM (inactive)	> 100 µM (inactive)	–	> 100 µM (inactive)	> 100 µM (inactive)	> 100 µM (inactive)	> 100 µM (inactive)	26.5 µM (inactive)	> 100 µM (inactive)	> 100 µM (inactive)	> 100 µM (inactive)	> 100 µM (inactive)	> 100 µM (inactive)	19.1 µM (inactive)	53.6 µM (inactive)	78.9 µM (inactive)	> 100 µM (inactive)	> 100 µM (inactive)
Cc1cc(C)c2c(O)cc(-c3ccc4ccccc4c3)nc2n1	17.1 µM (inactive)	71.6 µM (inactive)	14.6 µM (inactive)	12.1 µM (inactive)	6.04 µM (inactive)	13.6 µM (inactive)	19.5 µM (inactive)	21.2 µM (inactive)	21.6 µM (inactive)	2.05 µM (inactive)	3.9 µM (inactive)	21.4 µM (inactive)	33.3 µM (inactive)	11.1 µM (inactive)	17.9 µM (inactive)	11.6 µM (inactive)	39 µM (inactive)	32.4 µM (inactive)	57.3 µM (inactive)	9.84 µM (inactive)
O=C(Nc1ccn(C2CCC(COC(c3ccccc3)(c3ccccc3)c3ccccc3)O2)c(=O)n1)c1ccccc1 (configuration not stated)	2.72 µM (inactive)	2.9 µM (inactive)	2.82 µM (inactive)	2.4 µM (inactive)	5.87 µM (inactive)	2.48 µM (inactive)	6.9 µM (inactive)	6.81 µM (inactive)	3.18 µM (inactive)	2.86 µM (inactive)	5 µM (inactive)	5.32 µM (inactive)	9.44 µM (inactive)	1.86 µM (inactive)	2.72 µM (inactive)	3.28 µM (inactive)	4.82 µM (inactive)	2.4 µM (inactive)	7.64 µM (inactive)	2.92 µM (inactive)
